# Data: US20240270720A1, “INDAZOLE YL BENZIMIDAZOLE DERIVATIVE OR PHARMACEUTICALLY ACCEPTABLE SALT THEREOF, AND USE THEREOF” (INDUSTRY-UNIVERSITY COOPERATION FOUNDATION HANYANG …, priority 2021, published 2024)
# Tests used:
# MEK1 = molecular target: T1, MEK1 (Homo sapiens, UniProt Q02750); assay: Protein kinase profiling (Kinase HotSpot); type: biochemical; conditions: single dose 1 μM
# T1 construct: purchased Reaction Biology Corp. (Kinase HotSpot service)
# Experimental: (§1) The analysis protocol was as follows: In a final reaction volume of 25 μL, a peptide substrate, [[sequence]], 5 μM, ATP 10 μM, and FLT3(h) (5 to 10 mU) were incubated with 25 mM Tris pH 7.5, 0.02 mM EGTA, 0.66 mg/mL myelin basic protein, 10 mM Mg acetate and [γ-33P-ATP] (a concentration of approximately 500 cpm/pmol was required for specific activity). The reaction was initiated by adding the Mg-ATP mixture. After incubation at room temperature for 40 minutes, the reaction was stopped by adding 5 μL of a 3% phosphoric acid solution. Thereafter, 10 μL of the reactant was spotted on a P30 filter mat and washed three times for 5 minutes in 75 mM phosphoric acid and once in methanol before drying and scintillation counting.
# ROS/ROS1 = ROS/ROS1 (Homo sapiens, UniProt P08922); assay: Protein kinase profiling (Kinase HotSpot)
# Experimental: as §1
# BTK = molecular target: T2, BTK (Homo sapiens, UniProt Q06187); assay: Protein kinase profiling (Kinase HotSpot); type: biochemical; conditions: single dose 1 μM
# T2 construct: purchased Reaction Biology Corp. (Kinase HotSpot service)
# Experimental: (§2) Reaction Biology Corp. Kinase HotSpot SM service (www.reactionbiology.com) was used to determine IC50 values for all compounds and kinase profiles. The analysis protocol was as follows: In a final reaction volume of 25 μL, a peptide substrate, [[sequence]], 5 μM, ATP 10 μM, and FLT3(h) (5 to 10 mU) were incubated with 25 mM Tris pH 7.5, 0.02 mM EGTA, 0.66 mg/mL myelin basic protein, 10 mM Mg acetate and [γ-33P-ATP] (a concentration of approximately 500 cpm/pmol was required for specific activity). The reaction was initiated by adding the Mg-ATP mixture. After incubation at room temperature for 40 minutes, the reaction was stopped by adding 5 μL of a 3% phosphoric acid solution. Thereafter, 10 μL of the reactant was spotted on a P30 filter mat and washed three times for 5 minutes in 75 mM phosphoric acid and once in methanol before drying and scintillation counting.
# PLK1 = molecular target: T3, PLK1 (Homo sapiens, UniProt P53350); assay: Protein kinase profiling (Kinase HotSpot); type: biochemical; conditions: single dose 1 μM
# T3 construct: purchased Reaction Biology Corp. (Kinase HotSpot service)
# Experimental: as §1
# c-Src = molecular target: T4, c-Src (Homo sapiens, UniProt P12931); assay: Protein kinase profiling (Kinase HotSpot); type: biochemical; conditions: single dose 1 μM
# T4 construct: purchased Reaction Biology Corp. (Kinase HotSpot service)
# Experimental: as §1
# AKT1 = molecular target: T5, AKT1 (Homo sapiens, UniProt P31749); assay: Protein kinase profiling (Kinase HotSpot); type: biochemical; conditions: single dose 1 μM
# T5 construct: purchased Reaction Biology Corp. (Kinase HotSpot service)
# Experimental: as §2
# PKA = PKA (Homo sapiens, UniProt P17612); assay: Protein kinase profiling (Kinase HotSpot)
# Experimental: as §1
# FGFR3 = FGFR3 (Homo sapiens, UniProt P22607); assay: Protein kinase profiling (Kinase HotSpot)
# Experimental: as §2
# LCK = molecular target: T6, LCK (Homo sapiens, UniProt P06239); assay: Protein kinase profiling (Kinase HotSpot); type: biochemical; conditions: single dose 1 μM
# T6 construct: purchased Reaction Biology Corp. (Kinase HotSpot service)
# Experimental: as §1
# KDR/VEGFR2 = molecular target: T7, KDR/VEGFR2 (Homo sapiens, UniProt P35968); assay: Protein kinase profiling (Kinase HotSpot); type: biochemical; conditions: single dose 1 μM
# T7 construct: purchased Reaction Biology Corp. (Kinase HotSpot service)
# Experimental: as §1
# CAMKK1 = molecular target: T8, CAMKK1 (Homo sapiens, UniProt Q8N5S9); assay: Protein kinase profiling (Kinase HotSpot); type: biochemical
# T8 construct: purchased Reaction Biology Corp. (Kinase HotSpot service)
# Experimental: as §2
# TRKC = molecular target: T9, TRKC (Homo sapiens, UniProt Q16288); assay: Protein kinase profiling (Kinase HotSpot); type: biochemical
# T9 construct: purchased Reaction Biology Corp. (Kinase HotSpot service)
# Experimental: as §2
# SYK = molecular target: T10, SYK (Homo sapiens, UniProt P43405); assay: Protein kinase profiling (Kinase HotSpot); type: biochemical; conditions: single dose 1 μM
# T10 construct: purchased Reaction Biology Corp. (Kinase HotSpot service)
# Experimental: as §1
# EGFR = molecular target: T11, EGFR (Homo sapiens, UniProt P00533); assay: Protein kinase profiling (Kinase HotSpot); type: biochemical; conditions: single dose 1 μM
# T11 construct: purchased Reaction Biology Corp. (Kinase HotSpot service)
# Experimental: as §1
# AXL = molecular target: T12, AXL (Homo sapiens, UniProt P30530); assay: Protein kinase profiling (Kinase HotSpot); type: biochemical; conditions: single dose 1 μM
# T12 construct: purchased Reaction Biology Corp. (Kinase HotSpot service)
# Experimental: as §2
# most other kinases = assay: Protein kinase profiling, 42 different kinases (summary); type: biochemical; conditions: 1 μM; kinases of the 42-kinase panel other than FLT3
# c-MER = molecular target: T13, c-MER (Homo sapiens, UniProt Q12866); assay: Protein kinase profiling (Kinase HotSpot); type: biochemical; conditions: single dose 1 μM
# T13 construct: purchased Reaction Biology Corp. (Kinase HotSpot service)
# Experimental: as §1
# TYRO3/SKY = molecular target: T14, TYRO3/SKY (Homo sapiens, UniProt Q06418); assay: Protein kinase profiling (Kinase HotSpot); type: biochemical; conditions: single dose 1 μM
# T14 construct: purchased Reaction Biology Corp. (Kinase HotSpot service)
# [1] = molecular target: T15, FLT3 (Y591_V592 ins VDFREYEYD) (Homo sapiens, UniProt P36888, INS591VDFREYEYD); assay: Kinase HotSpot radiometric kinase assay (Reaction Biology); type: biochemical
# T15 construct: purchased Reaction Biology Corp. (Kinase HotSpot service)
# Experimental: as §2
# BRAF (V599E) = molecular target: T16, BRAF (V599E) (Homo sapiens, UniProt P15056, V600E); assay: Protein kinase profiling (Kinase HotSpot); type: biochemical
# T16 construct: purchased Reaction Biology Corp. (Kinase HotSpot service)
# Experimental: as §2
# GSK3b = GSK3b (Homo sapiens, UniProt P49841); assay: Protein kinase profiling (Kinase HotSpot)
# Experimental: as §2
# LYN = LYN (Homo sapiens, UniProt P07948); assay: Protein kinase profiling (Kinase HotSpot)
# Experimental: as §1
# JAK3 = JAK3 (Homo sapiens, UniProt P52333); assay: Protein kinase profiling (Kinase HotSpot)
# Experimental: as §1
# ALK = molecular target: T17, ALK (Homo sapiens, UniProt Q9UM73); assay: Protein kinase profiling (Kinase HotSpot); type: biochemical; conditions: single dose 1 μM
# T17 construct: purchased Reaction Biology Corp. (Kinase HotSpot service)
# Experimental: as §2
# Aurora A = Aurora A (Homo sapiens, UniProt O14965); assay: Protein kinase profiling (Kinase HotSpot)
# Experimental: as §2
# IGF1R = molecular target: T18, IGF1R (Homo sapiens, UniProt P08069); assay: Protein kinase profiling (Kinase HotSpot); type: biochemical; conditions: single dose 1 μM
# T18 construct: purchased Reaction Biology Corp. (Kinase HotSpot service)
# Experimental: as §2
# RON/MST1R = molecular target: T19, RON/MST1R (Homo sapiens, UniProt Q04912); assay: Protein kinase profiling (Kinase HotSpot); type: biochemical; conditions: single dose 1 μM
# T19 construct: purchased Reaction Biology Corp. (Kinase HotSpot service)
# Experimental: as §1
# FMS = molecular target: T20, FMS (Homo sapiens, UniProt P07333); assay: Protein kinase profiling (Kinase HotSpot); type: biochemical; conditions: single dose 1 μM
# T20 construct: purchased Reaction Biology Corp. (Kinase HotSpot service)
# Experimental: as §2
# c-MET = molecular target: T21, c-MET (Homo sapiens, UniProt P08581); assay: Protein kinase profiling (Kinase HotSpot); type: biochemical; conditions: single dose 1 μM
# T21 construct: purchased Reaction Biology Corp. (Kinase HotSpot service)
# Experimental: as §1
# ABL1 = molecular target: T22, ABL1 (Homo sapiens, UniProt P00519); assay: Protein kinase profiling (Kinase HotSpot); type: biochemical
# T22 construct: purchased Reaction Biology Corp. (Kinase HotSpot service)
# Experimental: as §2
# ERK1 = molecular target: T23, ERK1 (Homo sapiens, UniProt P27361); assay: Protein kinase profiling (Kinase HotSpot); type: biochemical
# T23 construct: purchased Reaction Biology Corp. (Kinase HotSpot service)
# Experimental: as §1
# AXL (R499C) = molecular target: T24, AXL (R499C) (Homo sapiens, UniProt P30530, R499C); assay: Protein kinase profiling (Kinase HotSpot); type: biochemical; conditions: single dose 1 μM
# T24 construct: purchased Reaction Biology Corp. (Kinase HotSpot service)
# Experimental: as §2
# FLT3-ITD = FLT3-ITD (Homo sapiens, UniProt P36888); assay: Protein kinase profiling (Kinase HotSpot); type: biochemical; conditions: single dose 1 μM
# FYN = FYN (Homo sapiens, UniProt P06241); assay: Protein kinase profiling (Kinase HotSpot)
# Experimental: as §2
# FLT3 (ITD)-NPOS = FLT3 (ITD)-NPOS (Homo sapiens, UniProt P36888); assay: Kinase HotSpot radiometric kinase assay (Reaction Biology); type: biochemical; conditions: single dose 1 μM
# Experimental: Reaction Biology Corp. Kinase HotSpot SM service (www.reactionbiology.com) was used to determine IC50 values for all compounds and kinase profiles. […] The reaction was initiated by adding the Mg-ATP mixture. After incubation at room temperature for 40 minutes, the reaction was stopped by adding 5 μL of a 3% phosphoric acid solution. Thereafter, 10 μL of the reactant was spotted on a P30 filter mat and washed three times for 5 minutes in 75 mM phosphoric acid and once in methanol before drying and scintillation counting.
# c-Kit = c-Kit (Homo sapiens, UniProt P10721); assay: Protein kinase profiling (Kinase HotSpot)
# Experimental: as §2
# FLT3 (R595_E596 ins EY) = molecular target: T25, FLT3 (R595_E596 ins EY) (Homo sapiens, UniProt P36888, INS595EY); assay: Kinase HotSpot radiometric kinase assay (Reaction Biology); type: biochemical
# T25 construct: purchased Reaction Biology Corp. (Kinase HotSpot service)
# T25 sequence (P36888 with tags, fused parts or gaps INS595EY limits assumed): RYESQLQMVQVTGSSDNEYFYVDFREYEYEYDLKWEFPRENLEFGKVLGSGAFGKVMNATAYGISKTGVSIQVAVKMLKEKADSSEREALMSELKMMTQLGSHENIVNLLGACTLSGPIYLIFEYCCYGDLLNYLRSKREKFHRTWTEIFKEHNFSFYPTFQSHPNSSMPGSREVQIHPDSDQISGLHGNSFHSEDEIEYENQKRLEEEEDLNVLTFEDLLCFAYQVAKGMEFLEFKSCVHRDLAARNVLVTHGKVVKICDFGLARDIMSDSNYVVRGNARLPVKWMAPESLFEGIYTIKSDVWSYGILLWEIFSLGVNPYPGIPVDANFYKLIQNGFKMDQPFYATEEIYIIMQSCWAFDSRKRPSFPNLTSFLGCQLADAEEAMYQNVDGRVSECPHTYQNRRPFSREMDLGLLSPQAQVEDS
# Experimental: as §2
# T8 sequence (Q8N5S9 whole entry): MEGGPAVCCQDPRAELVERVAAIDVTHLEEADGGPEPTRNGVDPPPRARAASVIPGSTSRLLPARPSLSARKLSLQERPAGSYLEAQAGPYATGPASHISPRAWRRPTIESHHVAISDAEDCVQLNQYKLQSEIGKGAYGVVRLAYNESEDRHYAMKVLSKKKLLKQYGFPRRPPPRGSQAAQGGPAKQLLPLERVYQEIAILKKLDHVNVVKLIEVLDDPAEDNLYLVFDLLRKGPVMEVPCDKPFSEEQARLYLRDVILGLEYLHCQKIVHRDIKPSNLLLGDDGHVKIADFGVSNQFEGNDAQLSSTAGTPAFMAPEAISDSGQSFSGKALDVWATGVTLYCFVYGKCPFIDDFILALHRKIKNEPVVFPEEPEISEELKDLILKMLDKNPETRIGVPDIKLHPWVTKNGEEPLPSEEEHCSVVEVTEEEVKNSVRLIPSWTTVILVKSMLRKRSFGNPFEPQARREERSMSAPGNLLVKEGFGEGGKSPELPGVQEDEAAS
# T9 sequence (Q16288 32-839): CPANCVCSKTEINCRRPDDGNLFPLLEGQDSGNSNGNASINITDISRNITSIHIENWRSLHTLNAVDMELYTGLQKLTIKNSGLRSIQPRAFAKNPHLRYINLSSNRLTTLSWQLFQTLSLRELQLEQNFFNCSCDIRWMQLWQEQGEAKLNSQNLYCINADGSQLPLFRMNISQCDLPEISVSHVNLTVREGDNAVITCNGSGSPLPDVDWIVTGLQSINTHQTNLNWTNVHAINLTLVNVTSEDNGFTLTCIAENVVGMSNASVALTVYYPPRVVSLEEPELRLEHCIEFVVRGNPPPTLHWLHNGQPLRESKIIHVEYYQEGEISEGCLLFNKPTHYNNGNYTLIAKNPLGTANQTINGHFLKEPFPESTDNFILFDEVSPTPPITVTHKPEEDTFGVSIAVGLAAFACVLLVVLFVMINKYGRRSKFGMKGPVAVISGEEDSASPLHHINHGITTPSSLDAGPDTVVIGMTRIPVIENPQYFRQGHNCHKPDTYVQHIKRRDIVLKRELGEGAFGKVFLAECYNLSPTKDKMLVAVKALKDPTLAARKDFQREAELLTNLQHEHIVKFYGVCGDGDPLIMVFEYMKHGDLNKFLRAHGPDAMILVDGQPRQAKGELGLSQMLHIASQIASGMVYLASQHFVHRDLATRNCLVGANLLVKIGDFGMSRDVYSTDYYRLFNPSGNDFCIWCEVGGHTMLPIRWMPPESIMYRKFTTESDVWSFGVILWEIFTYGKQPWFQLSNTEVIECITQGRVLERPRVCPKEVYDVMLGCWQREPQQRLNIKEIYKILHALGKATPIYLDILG
# Sequence of c-Kit (P10721 26-976): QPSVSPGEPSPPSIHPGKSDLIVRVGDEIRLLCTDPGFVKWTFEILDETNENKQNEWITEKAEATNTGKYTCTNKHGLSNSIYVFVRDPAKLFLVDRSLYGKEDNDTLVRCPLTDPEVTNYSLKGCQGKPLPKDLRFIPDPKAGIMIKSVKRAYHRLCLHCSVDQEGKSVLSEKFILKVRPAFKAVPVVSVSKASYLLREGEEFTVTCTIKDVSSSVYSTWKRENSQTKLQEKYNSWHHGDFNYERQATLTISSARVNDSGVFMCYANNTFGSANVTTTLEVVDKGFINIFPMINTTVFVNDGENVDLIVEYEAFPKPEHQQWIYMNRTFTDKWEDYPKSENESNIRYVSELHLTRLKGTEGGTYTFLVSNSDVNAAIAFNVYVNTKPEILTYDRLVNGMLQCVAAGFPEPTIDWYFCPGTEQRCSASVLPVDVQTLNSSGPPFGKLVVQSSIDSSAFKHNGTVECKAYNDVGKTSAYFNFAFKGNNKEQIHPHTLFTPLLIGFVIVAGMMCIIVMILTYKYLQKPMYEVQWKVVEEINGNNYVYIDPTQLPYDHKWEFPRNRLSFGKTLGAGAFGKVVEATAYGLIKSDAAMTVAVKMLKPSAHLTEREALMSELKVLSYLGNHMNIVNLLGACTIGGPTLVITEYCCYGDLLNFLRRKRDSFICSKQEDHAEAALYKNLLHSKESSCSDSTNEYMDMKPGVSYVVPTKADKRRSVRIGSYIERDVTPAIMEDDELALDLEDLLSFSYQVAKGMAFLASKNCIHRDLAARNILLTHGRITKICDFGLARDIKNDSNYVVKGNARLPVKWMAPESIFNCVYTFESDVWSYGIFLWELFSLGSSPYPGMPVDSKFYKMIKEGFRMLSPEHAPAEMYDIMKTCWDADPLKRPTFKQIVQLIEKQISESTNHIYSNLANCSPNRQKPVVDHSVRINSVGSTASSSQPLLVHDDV
# T22 sequence (P00519 whole entry): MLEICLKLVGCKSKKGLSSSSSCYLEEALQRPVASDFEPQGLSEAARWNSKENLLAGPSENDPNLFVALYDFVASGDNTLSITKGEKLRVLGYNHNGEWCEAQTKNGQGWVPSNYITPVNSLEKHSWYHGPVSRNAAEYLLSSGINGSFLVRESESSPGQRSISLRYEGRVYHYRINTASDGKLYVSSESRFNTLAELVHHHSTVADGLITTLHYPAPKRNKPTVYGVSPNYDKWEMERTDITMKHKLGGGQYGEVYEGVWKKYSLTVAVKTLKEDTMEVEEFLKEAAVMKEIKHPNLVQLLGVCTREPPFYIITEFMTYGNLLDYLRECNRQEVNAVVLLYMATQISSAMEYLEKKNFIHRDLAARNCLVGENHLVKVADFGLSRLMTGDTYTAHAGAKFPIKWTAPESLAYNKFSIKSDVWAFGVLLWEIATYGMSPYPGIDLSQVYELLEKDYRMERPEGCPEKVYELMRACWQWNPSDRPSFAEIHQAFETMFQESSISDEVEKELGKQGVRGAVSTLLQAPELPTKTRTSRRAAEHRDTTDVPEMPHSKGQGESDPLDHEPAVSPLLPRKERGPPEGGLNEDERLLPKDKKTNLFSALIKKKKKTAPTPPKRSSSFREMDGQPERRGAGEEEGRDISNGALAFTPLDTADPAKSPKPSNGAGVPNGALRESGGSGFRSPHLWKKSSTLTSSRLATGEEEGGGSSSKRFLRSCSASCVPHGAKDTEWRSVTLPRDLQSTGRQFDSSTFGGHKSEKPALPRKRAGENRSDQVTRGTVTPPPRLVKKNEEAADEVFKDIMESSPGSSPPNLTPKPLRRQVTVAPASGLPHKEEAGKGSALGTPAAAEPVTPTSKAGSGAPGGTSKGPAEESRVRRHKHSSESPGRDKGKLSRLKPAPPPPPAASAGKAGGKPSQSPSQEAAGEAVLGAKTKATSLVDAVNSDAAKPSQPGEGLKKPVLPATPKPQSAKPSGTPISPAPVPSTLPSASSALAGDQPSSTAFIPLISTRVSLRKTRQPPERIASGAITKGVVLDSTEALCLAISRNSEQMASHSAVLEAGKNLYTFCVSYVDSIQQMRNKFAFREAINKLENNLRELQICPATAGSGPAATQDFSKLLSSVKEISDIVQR
# T15 sequence (P36888 with tags, fused parts or gaps with the stated changes limits assumed): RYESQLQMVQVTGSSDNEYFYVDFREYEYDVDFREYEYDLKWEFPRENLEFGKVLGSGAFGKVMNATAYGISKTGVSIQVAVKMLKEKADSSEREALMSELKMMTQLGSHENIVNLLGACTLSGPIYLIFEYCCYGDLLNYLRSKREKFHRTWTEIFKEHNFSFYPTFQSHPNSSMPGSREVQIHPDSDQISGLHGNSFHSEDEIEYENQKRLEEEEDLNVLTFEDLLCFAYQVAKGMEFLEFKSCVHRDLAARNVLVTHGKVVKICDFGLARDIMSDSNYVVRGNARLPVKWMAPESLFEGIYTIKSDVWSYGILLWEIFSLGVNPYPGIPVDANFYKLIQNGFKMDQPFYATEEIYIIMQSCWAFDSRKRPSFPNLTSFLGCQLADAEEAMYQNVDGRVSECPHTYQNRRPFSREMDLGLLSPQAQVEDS
# T4 sequence (P12931 whole entry): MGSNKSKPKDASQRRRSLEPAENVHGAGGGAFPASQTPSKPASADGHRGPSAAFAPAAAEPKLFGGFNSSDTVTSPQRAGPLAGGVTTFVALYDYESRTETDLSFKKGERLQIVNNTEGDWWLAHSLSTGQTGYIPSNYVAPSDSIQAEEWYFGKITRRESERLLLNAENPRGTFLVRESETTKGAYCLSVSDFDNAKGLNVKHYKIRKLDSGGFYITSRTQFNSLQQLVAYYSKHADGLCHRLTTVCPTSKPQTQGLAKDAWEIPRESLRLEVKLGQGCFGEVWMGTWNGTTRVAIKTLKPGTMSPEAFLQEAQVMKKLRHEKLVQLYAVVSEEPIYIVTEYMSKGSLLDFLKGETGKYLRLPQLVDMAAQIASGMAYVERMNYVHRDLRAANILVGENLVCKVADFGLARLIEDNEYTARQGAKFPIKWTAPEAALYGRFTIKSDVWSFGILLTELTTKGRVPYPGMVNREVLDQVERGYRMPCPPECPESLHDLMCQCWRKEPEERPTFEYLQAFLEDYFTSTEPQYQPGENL
smiles,measurement,setting,value
"CCN1CCN(Cc2cc(C(=O)Nc3ccc4[nH]c(-c5ccc6cn[nH]c6c5)nc4c3)cc(C(F)(F)F)c2)CC1 [Compound 8r, N-(2-(1H-indazol-6-yl)-1H-benzo[di]imidazol-5-yl)-3-((4-ethylpiperazin-1-yl)methyl)-5-(trifluoromethyl)benzamide]",inhibition at 1 µM,MEK1,5.69%
same,melting point,,265 to 267 °C
same,inhibition at 1 µM,ROS/ROS1,7.4%
same,inhibition at 1 µM,BTK,17.5%
same,inhibition at 1 µM,PLK1,5.39%
same,inhibition at 1 µM,c-Src,1.94%
same,inhibition at 1 µM,AKT1,3.09%
same,inhibition at 1 µM,PKA,7.34%
same,inhibition at 1 µM,FGFR3,0%
same,inhibition at 1 µM,LCK,0%
same,inhibition at 1 µM,KDR/VEGFR2,7.12%
same,inhibition at 1 µM,"CAMKK1; CAMKK1, single dose 1 μM",32.5%
same,IC50,CAMKK1; Table 4,395 nM
same,inhibition at 1 µM,"TRKC; TRKC, single dose 1 μM",48.3%
same,IC50,TRKC; Table 4,1520 nM
same,inhibition at 1 µM,SYK,6.01%
same,inhibition at 1 µM,EGFR,0.274%
same,inhibition at 1 µM,AXL,1.88%
same,inhibitory activity for most other kinases,most other kinases,less than 20%
same,inhibition at 1 µM,c-MER,7.3%
same,inhibition at 1 µM,TYRO3/SKY,9.76%
same,inhibition at 1 µM,"[1]; FLT3 (Y591_V592ins[…]), single dose 1 μM",90.9%
same,IC50,[1]; read-out: IC50 FLT3 (Y591_V592 ins VDFREYEYD),49.5 nM
same,inhibition at 1 µM,BRAF (V599E),1%
same,inhibition at 1 µM,GSK3b,7.25%
same,inhibition at 1 µM,LYN,7.4%
same,inhibition at 1 µM,JAK3,6.42%
same,inhibition at 1 µM,ALK,7.5%
same,inhibition at 1 µM,Aurora A,7.47%
same,inhibition at 1 µM,IGF1R,6.14%
same,inhibition at 1 µM,RON/MST1R,6.99%
same,inhibition at 1 µM,FMS,0.531%
same,inhibition at 1 µM,c-MET,6.53%
same,inhibition at 1 µM,"ABL1; ABL1, single dose 1 μM",18.4%
same,IC50,ABL1; Table 4,3090 nM
same,inhibition at 1 µM,ERK1,0%
same,inhibition at 1 µM,AXL (R499C),6.64%
same,% Inhibition,FLT3-ITD,88.0%
same,inhibition at 1 µM,FYN,18%
same,% Inhibition,FLT3 (ITD)-NPOS,88.0%
same,inhibition at 1 µM,c-Kit,19%
same,IC50,"c-Kit; read-out: IC50 c-Kit, Table 4",4570 nM
same,IC50,FLT3 (R595_E596 ins EY),24.8 nM
same,inhibition at 1 µM,"FLT3 (R595_E596 ins EY); FLT3 (R595_E596insEY), single dose 1 μM",93.9%
